Results taken from patent US20110135588A1, “Hair Conditioning Composition Comprising Quaternized Silicone Polymer, Silicone Copolymer, and Carbamate” (priority 2009, published 2011).

Assay: Product appearance (compatibility with the quaternized silicone polymer and/or solvent thereof): silicone particle size observed by microscope
Type: physicochemical
Conditions: preservative used together with quaternized silicone polymer and its solvent
Procedure: Product Appearance (Compatibility with the Quaternized Silicone Polymer and/or Solvent Thereof)
Product appearance is evaluated as follows, by silicone particle size in compositions which was observed using micro scope.
Pass: Average silicone particle size is 200 μm or less
Fail: Average silicone particle size is above 200 μm (excluding 200 μm)

O=C(O)c1ccccc1O [salicylic acid]
Agglomeration of quaternized silicone polymer (product appearance): form agglomerates

C/C=C/C=C/C(=O)[O-].[K+] [potassium sorbate]
Agglomeration of quaternized silicone polymer (product appearance): form agglomerates
